Test results: US20230090255A1, “MAGL INHIBITOR, PREPARATION METHOD THEREFOR AND USE THEREOF” (LUNAN PHARMACEUTICAL GROUP CORPORATION, priority 2019, published 2023)
Marks after values point to notes of the source that are not given here.

Tested on: reserpine-induced mice depression
Assay: Reserpine-induced mice depression
Format: in vivo, ICR mouse
Set-up: Awakening / Finger contact / Head touch / Fear / Autonomic activity / Eyelid closure / Upright: scale not given here
Protocol: • Species: ICR mouse • Microbiological level: SPF • Quantity and sex of the animals purchased: male: 75; female: 75 • Quantity and sex of the animals used: male: 75; female: 75 • Body weight: 13-18 g when accepted
Group design: there were 50 pieces for each batch of animals and 3 batches in total; each batch of animals were randomly divided into 5 groups; low, middle and high-dose groups of the samples for test, blank control group and model group; a sample for test was tested per batch.
3.1 Animals were administrated via subcutaneous injection per day with doses of 4, 8 and 16 mg/kg for 6 d in total. 2 h later after the final administration, each animal was subcutaneously injected with 4 mg/kg reserpine except the blank control group; afterwards, indicators, such as, awakening, finger contact, fear, head touch, autonomic activity, upright and eyelid closure were determined 2 h later.
Data statistics and analysis were completed via a computer by SPSS 17.0 software and office 2016, and data statistics was inspected by Kruskal-Wallis. If the Kruskal-Wallis inspection result is significant ((P<0.05), multiple comparison inspection is further performed by a Mann-Whitney U nonparametric test method.

[1] = high dose 16 mg/kg sc 6 d, 2 h after reserpine 4 mg/kg
[2] = low dose 4 mg/kg sc 6 d, 2 h after reserpine 4 mg/kg
[3] = middle dose 8 mg/kg sc 6 d, 2 h after reserpine 4 mg/kg

## O=C(Nc1cccc(Cl)c1)C1CCN(C(=O)c2cccc(O)c2)CC1 [MAGLZ-II-11]
4, 8 and 16 mg/kg sc 6 d
  effect on reserpine-induced depression (conclusion): has a certain effect
[1]
  Autonomic activity: 1.8±1.66* *
  Awakening: 3.2±1.33
  Eyelid closure: 2±1.26
  Fear: 0.2±0.60
  Finger contact: 2±1.79
  Head touch: 2.6±1.56
  Upright: 1±1.61* *
[2]
  Autonomic activity: 0.8±1.60
  Awakening: 3±1.61
  Eyelid closure: 1.2±0.98
  Fear: 0±0
  Finger contact: 1.6±1.50
  Head touch: 1±1.34
[3]
  Autonomic activity: 0.8±1.60
  Awakening: 2.6±1.56
  Eyelid closure: 1.4±1.28
  Fear: 0±0
  Finger contact: 1.8±1.66
  Head touch: 1.8±1.40
